Assay results as given in patent US20260234112A1, “COMPOUNDS, COMPOSITIONS, AND METHODS OF USE THEREOF” (Type6 Therapeutics, Inc., priority 2023, published 2026).

Biological target: T1, Cdk2(2-298) (Homo sapiens, UniProt P24941)
T1 construct: Biotinylated N-terminal avi-tagged Cdk2(2-298) or Cdk1(1-297) was immobilized
Experiment: Surface Plasmon Resonance (SPR) compound interaction, Biacore 8K
Assay type: binding
Settings: single-cycle kinetics (SCK, "S"), dissociation 1800 sec, read-out: Activity rating (KD)
Experimental: Compound interaction was profiled using a Biacore 8K instrument (Cytiva). Biotinylated N-terminal avi-tagged Cdk2(2-298) or Cdk1(1-297) was immobilized on a series S sensor Chip SA at a capture level between 2500 RU and 3000 RU (Cdk2) or 7000 RU (Cdk1) in buffer (25 mM HEPES, 150 mM NaCl, 0.05% Tween20, pH 7.5). A compound dilution plate (8 concentrations, 3-fold dilution) in DMSO was prepared (100× assay concentration). From this plate, compound DMSO stock solution was transferred into buffer, yielding a final DMSO concentration of 1% in assay. The remaining buffer was supplemented with 1% DMSO. Compounds were injected in a series of increasing concentrations in multi-cycle kinetics (MCK, “M”) or single-cycle kinetics (SCK, “S”) mode at a flow rate of 30 μl/min for 120 sec and dissociation was profiled for 180 sec (MCK) or 1800 sec (SCK). Data were analysed using Biacore Insight Evaluation Software (Cytiva).

Compound | Kd [nM]
Cc1cc2cc(S(=O)(=O)Nc3ccc(Oc4ccncc4-c4ccnc(N[C@H]5CC[C@H](N)CC5)n4)c(F)c3)ccc2[nH]1 [Compound 45, N-[4-[[3-[2-[(1r,4r)(4-aminocyclohexyl)amino]pyrimidin-4-yl]-4-pyridyl]oxy]-3-fluorophenyl] 2-methyl-1H-indole-5-sulfonamide] | > 5000
N[C@H]1CC[C@H](Nc2nccc(-c3cnccc3Oc3ccc(NS(=O)(=O)c4ccccc4)c(F)c3)n2)CC1 [Compound 46, N-[4-[[3-[2-[(1r,4r)(4-Aminocyclohexyl)amino]pyrimidin-4-yl]-4-pyridyl]oxy]-2-fluorophenyl] benzenesulfonamide] | 100 to 1000
N[C@H]1CC[C@H](Nc2nccc(-c3cnccc3Oc3cc(Cl)c(NS(=O)(=O)c4ccccc4Cl)cc3F)n2)CC1 [Compound 47, N-[4-[[3-[2-[(1r,4r)(4-Aminocyclohexyl)amino]pyrimidin-4-yl]-4-pyridyl]oxy]-2-chloro-5-fluorophenyl] 2-chlorobenzenesulfonamide] | ≤ 10
N[C@H]1CC[C@H](Nc2nccc(-c3cnccc3Oc3cc(Cl)c(NS(=O)(=O)c4ccccc4)cc3F)n2)CC1 [Compound 48, N-[4-[[3-[2-[(1r,4r)(4-Aminocyclohexyl)amino]pyrimidin-4-yl]-4-pyridyl]oxy]-2-chloro-5-fluorophenyl] benzenesulfonamide] | 11 to 100
N[C@H]1CC[C@H](Nc2nccc(-c3cnccc3Oc3cc(Cl)c(NS(=O)(=O)Cc4ccccc4)cc3F)n2)CC1 [Compound 49, N-[4-[[3-[2-[(1r,4r)(4-Aminocyclohexyl)amino]pyrimidin-4-yl]-4-pyridyl]oxy]-2-chloro-5-fluorophenyl] phenylmethanesulfonamide] | 100 to 1000
N[C@H]1CC[C@H](Nc2nccc(-c3cnccc3Oc3ccc(NS(=O)(=O)C4CC4)c(Cl)c3)n2)CC1 [Compound 50, N-[4-[[3-[2-[(1r,4r)(4-Aminocyclohexyl)amino]pyrimidin-4-yl]-4-pyridyl]oxy]-2-chlorophenyl] cyclopropanesulfonamide] | > 5000
N[C@H]1CC[C@H](Nc2nccc(-c3cnccc3Oc3ccc(NS(=O)(=O)Cc4ccccc4)c(Cl)c3)n2)CC1 [Compound 51, N-[4-[[3-[2-[(1r,4r)(4-Aminocyclohexyl)amino]pyrimidin-4-yl]-4-pyridyl]oxy]-2-chlorophenyl] phenylmethanesulfonamide] | 1000 to 5000
N[C@H]1CC[C@H](Nc2nccc(-c3cnccc3Oc3ccc(NS(=O)(=O)c4ccccc4)c(Cl)c3F)n2)CC1 [Compound 52, N-[4-[[3-[2-[(1r,4r)(4-Aminocyclohexyl)amino]pyrimidin-4-yl]-4-pyridyl]oxy]-2-chloro-3-fluorophenyl] benzenesulfonamide] | 11 to 100
N[C@H]1CC[C@H](Nc2nccc(-c3cnccc3Oc3ccc(NS(=O)(=O)c4ccccc4Br)cc3F)n2)CC1 [Compound 53, N-[4-[[3-[2-[(1r,4r)(4-Aminocyclohexyl)amino]pyrimidin-4-yl]-4-pyridyl]oxy]-3-fluorophenyl] 2-bromobenzenesulfonamide] | ≤ 10
Cc1ccccc1S(=O)(=O)Nc1ccc(Oc2ccncc2-c2ccnc(N[C@H]3CC[C@H](N)CC3)n2)c(F)c1 [Compound 54, N-[4-[[3-[2-[(1r,4r)(4-Aminocyclohexyl)amino]pyrimidin-4-yl]-4-pyridyl]oxy]-3-fluorophenyl] 2-methylbenzenesulfonamide] | 11 to 100
Cc1cc(C)c(S(=O)(=O)Nc2ccc(Oc3ccncc3-c3ccnc(N[C@H]4CC[C@H](N)CC4)n3)c(F)c2)c(C)c1 [Compound 55, N-[4-[[3-[2-[(1r,4r)(4-Aminocyclohexyl)amino]pyrimidin-4-yl]-4-pyridyl]oxy]-3-fluorophenyl] 2,4,6-trimethylbenzenesulfonamide] | 100 to 1000
N[C@H]1CC[C@H](Nc2nccc(-c3cnccc3Oc3ccc(NS(=O)(=O)c4cccc5nccnc45)cc3F)n2)CC1 [Compound 56, N-[4-[[3-[2-[(1r,4r)(4-Aminocyclohexyl)amino]pyrimidin-4-yl]-4-pyridyl]oxy]-3-fluorophenyl] quinoxalin-5-ylsulfonamide] | 100 to 1000
N[C@H]1CC[C@H](Nc2nccc(-c3cnccc3Oc3ccc(NS(=O)(=O)c4cccc5c4CCCC5)cc3F)n2)CC1 [Compound 57] | 100 to 1000
N[C@H]1CC[C@H](Nc2nccc(-c3cnccc3Oc3ccc(NS(=O)(=O)c4cc(Cl)c(Br)cc4F)cc3F)n2)CC1 [Compound 58, N-[4-[[3-[2-[(1r,4r)(4-Aminocyclohexyl)amino]pyrimidin-4-yl]-4-pyridyl]oxy]-3-fluorophenyl] 4-bromo-5-chloro-2-fluorobenzenesulfonamide] | 11 to 100
O=S(=O)(Nc1ccc(Oc2ccncc2-c2ccnc(N[C@H]3CCCNC3)n2)c(F)c1)c1ccccc1 [Compound 59, N-[3-Fluoro-4-[[3-[2-[[(3S)-3-piperidyl]amino]pyrimidin-4-yl]-4-pyridyl]oxy]phenyl] benzenesulfonamide] | 11 to 100
N[C@H]1CC[C@H](Nc2nccc(-c3cnccc3Oc3cc(Cl)c(NS(=O)(=O)C4CC4)cc3F)n2)CC1 [Compound 60, N-[4-[[3-[2-[(1r,4r)(4-Aminocyclohexyl)amino]pyrimidin-4-yl]-4-pyridyl]oxy]-2-chloro-5-fluorophenyl] cyclopropylsulfonamide] | 1000 to 5000
N[C@H]1CC[C@H](Nc2nccc(-c3cnccc3Oc3ccc(NS(=O)(=O)c4ccccc4)c(Cl)c3)n2)CC1 [Compound 61, N-[4-[[3-[2-[(1r,4r)(4-Aminocyclohexyl)amino]pyrimidin-4-yl]-4-pyridyl]oxy]-2-chiorophenyl] benzenesulfonamide] | 100 to 1000
N[C@H]1CC[C@H](Nc2nccc(-c3cnccc3Oc3ccc(NS(=O)(=O)c4ccccc4)c(Br)c3)n2)CC1 [Compound 62, N-[4-[[3-[2-[(1r,4r)(4-Aminocyclohexyl)amino]pyrimidin-4-yl]-4-pyridyl]oxy]-2-bromophenyl] benzenesulfonamide] | 100 to 1000
N[C@H]1CC[C@H](Nc2nccc(-c3cnccc3Oc3cc(Cl)c(NS(=O)(=O)c4ccccc4)c(Cl)c3)n2)CC1 [Compound 63, N-[4-[[3-[2-[(1r,4r)(4-Aminocyclohexyl)amino]pyrimidin-4-yl]-4-pyridyl]oxy]-2,6-dichlorophenyl] benzenesulfonamide] | 1000 to 5000
N[C@H]1CC[C@H](Nc2nccc(-c3cnccc3Oc3ccc(NS(=O)(=O)c4ccccc4F)cc3F)n2)CC1 [Compound 64, N-[4-[[3-[2-[(1r,4r)(4-Aminocyclohexyl)amino]pyrimidin-4-yl]-4-pyridyl]oxy]-3-fluorophenyl] 2-fluorobenzenesulfonamide] | ≤ 10
N[C@H]1CC[C@H](Nc2nccc(-c3cnccc3Oc3ccc(NS(=O)(=O)c4ccccc4I)cc3F)n2)CC1 [Compound 65, N-[4-[[3-[2-[(1r,4r)(4-Aminocyclohexyl)amino]pyrimidin-4-yl]-4-pyridyl]oxy]-3-fluorophenyl] 2-iodobenzenesulfonamide] | ≤ 10
CC(C)(C)c1ccccc1S(=O)(=O)Nc1ccc(Oc2ccncc2-c2ccnc(N[C@H]3CC[C@H](N)CC3)n2)c(F)c1 [Compound 66, N-[4-[[3-[2-[(1r,4r)(4-Aminocyclohexyl)amino]pyrimidin-4-yl]-4-pyridyl]oxy]-3-fluorophenyl] 2-tert-butylbenzenesulfonamide] | 100 to 1000
N#Cc1ccccc1S(=O)(=O)Nc1ccc(Oc2ccncc2-c2ccnc(N[C@H]3CC[C@H](N)CC3)n2)c(F)c1 [Compound 67, N-[4-[[3-[2-[(1r,4r)(4-Aminocyclohexyl)amino]pyrimidin-4-yl]-4-pyridyl]oxy]-3-fluorophenyl] 2-cyanobenzenesulfonamide] | ≤ 10
N[C@H]1CC[C@H](Nc2nccc(-c3cnccc3Oc3ccc(NS(=O)(=O)C4CCCCC4)cc3F)n2)CC1 [Compound 68, N-[4-[[3-[2-[(1r,4r)(4-Aminocyclohexyl)amino]pyrimidin-4-yl]-4-pyridyl]oxy]-3-fluorophenyl] cyclohexylsulfonamide] | 100 to 1000
N[C@H]1CC[C@H](Nc2nccc(-c3cnccc3Oc3ccc(NS(=O)(=O)c4cccc5ccccc45)cc3F)n2)CC1 [Compound 69, N-[4-[[3-[2-[(1r,4r)(4-Aminocyclohexyl)amino]pyrimidin-4-yl]-4-pyridyl]oxy]-3-fluorophenyl] naphthalene-1-sulfonamide] | 11 to 100
O=S(=O)(Nc1ccc(Oc2ccncc2-c2ccnc(N[C@H]3CCCNC3)n2)c(F)c1)c1cccc2ccccc12 [Compound 70, N-[3-Fluoro-4-[[3-[2-[[(3S)-3-piperidyl]amino]pyrimidin-4-yl]-4-pyridyl]oxy]phenyl] naphthalene-1-sulfonamide] | ≤ 10
CCc1ccccc1S(=O)(=O)Nc1ccc(Oc2ccncc2-c2ccnc(N[C@H]3CC[C@H](N)CC3)n2)c(F)c1 [Compound 71, N-[4-[[3-[2-(1r,4r)[(4-Aminocyclohexyl)amino]pyrimidin-4-yl]-4-pyridyl]oxy]-3-fluorophenyl] 2-ethylbenzenesulfonamide] | ≤ 10
N[C@H]1CC[C@H](Nc2nccc(-c3cnccc3Oc3ccc(NS(=O)(=O)c4ccccc4-c4ccccc4)cc3F)n2)CC1 [Compound 72, N-[4-[[3-[2-(1r,4r)[(4-Aminocyclohexyl)amino]pyrimidin-4-yl]-4-pyridyl]oxy]-3-fluorophenyl] 2-phenylbenzenesulfonamide] | 11 to 100
